Measurements published in patent US12715851B2, “4′-substituted analogues of fisetin and their use in the treatment of cancer” (Stellenbosch University, priority 2020, dated 2026).

Assays:
[1] = Acute toxicity, fed orally for two weeks; format: in vivo; settings: Fisetin 50 mg/kg, 3c 25 and 50 mg/kg body weight
Method: Fisetin analogue 3c was used to assess the potential toxicity of these analogues in a pre-clinical model. To test the acute toxicity, Fisetin (50 mg/kg body weight), analogue 3c (25 mg/kg and 50 mg/kg body weight), and vehicle control (5% DMSO, 45% PEG-300 and 50% saline) was fed orally for two weeks. Abnormal clinical signs such as decreased motor activity, sensory reflection, body weight, food intake, and water intake were monitored during the treatment period. An increase in body weight was observed among all groups throughout the treatment period (FIG. 7A). […] This variation could be due to consistent frequency of dosage.

[2] = test system: lipid peroxidation (MDA formation); assay: Hepatotoxicity: lipid peroxidation assay on microsomal liver fraction (TBARS); format: in vivo, swiss albino mice; settings: microsomal liver fraction of treated mice
Method: (§1) Hepatotoxicity is considered to be one of the major challenges for drug development schemes. The liver is the primary organ for the metabolism or biotransformation of a given drug. To assess the hepatotoxicity of these compounds, the effects of Fisetin and analogue 3c on various hepatic enzymes was assessed.
(§2) A lipid peroxidation assay was performed on microsomal liver fraction and determined in terms of TBARS formation. […] The modulatory effects of Fisetin and analogue 3c were determined on the specific activities of cytochrome b5 reductase (Cytb5R) and cytochrome P450 reductase (CytP450R), phase I enzyme of xenobiotic metabolism. Fisetin and analogue 3c caused reduction in the specific activity of cytochrome b5 reductase. Fisetin decreased Cytb5R specific activity by 66% whereas analogue 3c (50 mg/kg) caused a 36% reduction in specific activity (FIG. 7F). An increase in specific activity of CytP450R by Fisetin and analogue 3c was observed. Fisetin and analogue 3c (50 mg/kg) increased the specific activity by 15% and 13%, respectively (FIG. 7G). Next, the specific activities of phase II enzymes, glutathione S-transferase (GST) and reduced glutathione (GSH) were measured. […] Fisetin and analogue 3c (50 mg/kg) caused a decrease in specific activity of GSH by 34% and 7%, respectively (FIG. 7I). […] These analogues are therefore likely to be effective and safe phytochemicals.

SOD = assay: Hepatotoxicity: specific activity of SOD; format: in vivo, swiss albino mice; settings: liver of treated mice
Method: as §1, §2

[3] = test system: cytochrome b5 reductase (Cytb5R); assay: Hepatotoxicity: specific activity of cytochrome b5 reductase; format: in vivo, swiss albino mice; settings: 50 mg/kg orally, two weeks
Method: as §1, §2

[4] = test system: cytochrome P450 reductase (CytP450R); assay: Hepatotoxicity: specific activity of cytochrome P450 reductase; format: in vivo, swiss albino mice; settings: 50 mg/kg orally, two weeks
Method: as §1, §2

[5] = test system: glutathione S-transferase (GST); assay: Hepatotoxicity: specific activity of glutathione S-transferase; format: in vivo, swiss albino mice; settings: liver of treated mice
Method: as §1, §2

[6] = test system: reduced glutathione (GSH); assay: Hepatotoxicity: reduced glutathione; format: in vivo, swiss albino mice; settings: 50 mg/kg orally, two weeks
Method: as §1, §2

[7] = test system: B(a)P-induced lung carcinogenesis; assay: B(a)P-induced lung carcinogenesis, Initiation and Promotion Protocols; format: in vivo, Swiss albino mice
Text: To assess whether Fisetin and its 4-bromo-Fisetin analogue (Fisetin analogue 3c) have anticarcinogenesis activity and if any toxicity in terms of water and food consumption, and body weight, Benzo[a]pyrene [B(a)P] induced lung carcinogenesis in Swiss albino mice were employed in the study. Along with the antitumor activity of the agents, the body weight, food and water intake in different treatment groups were monitored on regular intervals and analysed.
There were six different treatment groups in the study including, (1) control, (2) B(a)P, (3) Fisetin+B(a)P, (4) Fisetin analogue 3c+B(a)P, (5) B(a)P+Fisetin and (6) B(a)P+Fisetin analogue 3c.
Groups 3 and 4 represent the Initiation Protocol (agents treatment started 1 week before carcinogen treatment and continued 1 week after the last dose of the carcinogen). Groups 5 and 6 represent the Promotion Protocol (agents treatment started after 3 weeks of the carcinogen treatment). The B(a)P was given orally twice a week for 4 weeks at 50 mg/kg body weight dose, whereas Fisetin and Fisetin analogue (3c) were administered orally at 25 mg/kg body weight thrice weekly (see FIG. 9).

[8] = cited from earlier work
[9] = test system: 22rv1 prostate carcinoma cells; settings: retained on methylation of the 3-hydroxy group; cited from earlier work
[10] = test system: a range of cancer cell lines; settings: reported in the literature; cited from earlier work

For `O=c1c(O)c(-c2ccc(O)c(O)c2)oc2cc(O)ccc12` [Fisetin], the “toxicity in mice, in words” value [1] was “did not cause toxicity”, the “MDA formation (TBARS)” value [2] was “No significant change” and the “specific activity of SOD” value (SOD) was “moderately induced”. For the same compound, the “reduction in specific activity of cytochrome b5 reductase” value [3] was 66%, the “increase in specific activity of CytP450R” value [4] was 15% and the “specific activities of GST compared to the control group” value [5] was “did not cause significant change”. The “decrease in specific activity of GSH” value [6] was 34%, the “systemic toxicity during long-term application” value ([7]; 25 mg/kg orally thrice weekly) was “did not show any systemic toxicity” and the “tumorigenic features in lung histology (nucleus size, cytoplasmic content, alveoli)” value ([7]; 25 mg/kg orally thrice weekly) was “reversal of the tumorigenic features”. The “tumor incidence, histopathology of H&E stained serial sections” value ([7]; compared to the carcinogen treated group) was “less”, the “area or size of tumor lesions, in words” value ([7]; tumor initiation phase / initiation protocol) was “not effective as compared to the analogue” and the “tumor lesions per mouse and total number of lesions per group, in words” value ([7]; versus B(a)P group) was “strongly reduced”. The “pKa of the 4′-hydroxyl group” value [8] was ~ 9.4 and the “pKa of the 7-hydroxyl group” value ([8]; most acidic position) was ~ 7.3.

In the case of `COc1cc(-c2oc3ccccc3c(=O)c2O)cc(OC)c1OC` [TMFol], the “activity against 22rv1 prostate carcinoma cells” value [9] is given as “low micromolar activity”.

For `O=C1C[C@@H](c2ccc(O)cc2)Oc2cc(O)cc(O)c21` [navingenin], the “activity against cancer cell lines compared to apigenin” value [10] is listed as “inactive”.
